# Measurements from US20250161501A1, “Radiolabeled Compounds for Imaging of Fibroblast Activation Protein (FAP) and Treatment of FAP-Related Disorders” (Provincial Health Services Authority, priority 2022, published 2025).
# Columns and labels:
# FAP = biological target: T1, FAP (Homo sapiens, UniProt Q12884); conditions: literature [25]; cited from earlier work
# T1 sequence (Q12884 1-760): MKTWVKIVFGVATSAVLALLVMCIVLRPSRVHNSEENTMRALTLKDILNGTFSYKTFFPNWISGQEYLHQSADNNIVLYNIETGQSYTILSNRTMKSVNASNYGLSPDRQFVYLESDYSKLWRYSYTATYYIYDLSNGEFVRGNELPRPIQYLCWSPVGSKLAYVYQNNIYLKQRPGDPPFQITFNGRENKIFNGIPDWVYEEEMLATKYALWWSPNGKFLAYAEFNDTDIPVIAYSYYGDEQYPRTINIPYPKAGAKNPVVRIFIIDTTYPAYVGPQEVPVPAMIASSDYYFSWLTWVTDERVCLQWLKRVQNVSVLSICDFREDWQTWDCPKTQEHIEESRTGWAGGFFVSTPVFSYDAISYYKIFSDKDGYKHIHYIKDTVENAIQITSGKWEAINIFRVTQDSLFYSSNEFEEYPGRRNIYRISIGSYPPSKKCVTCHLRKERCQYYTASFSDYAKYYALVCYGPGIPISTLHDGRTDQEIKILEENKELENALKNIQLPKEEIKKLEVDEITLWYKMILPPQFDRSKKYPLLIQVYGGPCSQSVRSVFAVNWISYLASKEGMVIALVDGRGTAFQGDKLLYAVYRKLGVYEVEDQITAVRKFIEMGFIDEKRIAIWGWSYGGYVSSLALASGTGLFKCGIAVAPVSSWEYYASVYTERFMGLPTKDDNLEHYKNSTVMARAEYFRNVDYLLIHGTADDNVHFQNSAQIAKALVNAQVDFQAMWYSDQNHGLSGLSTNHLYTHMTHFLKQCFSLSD
# [1] = tested on: HEK293T:hFAP tumor xenografts; assay: Ex vivo biodistribution of 68Ga-labeled tracers in HEK293T:hFAP tumor-bearing mice; conditions: HEK293T:hFAP tumor xenograft mice, 1 h post-injection, Table 5, mean±SD
# Protocol: All imaging and biodistribution studies were performed using male NOD-scidIL2Rg^null (NRG) mice and conducted according to the guidelines established by the Canadian Council on Animal Care and approved by Animal Ethics Committee of the University of British Columbia. For tumor inoculations, mice were anesthetized by inhalation with 2% isoflurane in oxygen and implanted subcutaneously with 7.5×10^6 HEK293T:hFAP or U87 cells below the left shoulder. Imaging and biodistribution studies were performed only after tumors grew to 5-8 mm in diameter.
# For ex vivo biodistribution studies, mice were injected with -1-3 MBq of the ^68Ga-labeled tracer. Mice were allowed to recover and roam freely in the cages after injecting the tracer. […] The uptake in each organ/tissue was normalized to the injected dose and expressed as the percentage of the injected dose per gram of tissue (% ID/g).
# Biodistribution data for ^68Ga-SB03178, ^68Ga-SB04033, and ^68Ga-FAPI-4 in mice bearing FAP tumor xenografts are presented in Tables 5-7. Data are presented as mean±SD % ID/g.
SMILES,Tumor uptake over time (FAP),Biodistribution: Adrenal Glands [1] [% ID/g],Biodistribution: Blood [1] [% ID/g],Biodistribution: Bone [1] [% ID/g],Biodistribution: Brain [1] [% ID/g],Biodistribution: Fat [1] [% ID/g],Biodistribution: Heart [1] [% ID/g],Biodistribution: Kidneys [1] [% ID/g],Biodistribution: Liver [1] [% ID/g],Biodistribution: Lungs [1] [% ID/g],Biodistribution: Muscle [1] [% ID/g],Biodistribution: Pancreas [1] [% ID/g],Biodistribution: Spleen [1] [% ID/g],Biodistribution: Stomach [1] [% ID/g],Biodistribution: Testes [1] [% ID/g],Biodistribution: Tumor [1] [% ID/g]
"N#C[C@@H]1CCCN1C(=O)CNC(=O)c1ccnc2ccc(OCCCN3CCN(C(=O)CN4CCN(CC(=O)O)CCN(CC(=O)O)CCN(CC(=O)O)CC4)CC3)cc12 [^68Ga-FAPI-2, metal not drawn]",reduced quickly over time,,,,,,,,,,,,,,,
"N#C[C@@H]1CC(F)(F)CN1C(=O)CNC(=O)c1ccnc2ccc(OCCCN3CCN(C(=O)CN4CCN(CC(=O)O)CCN(CC(=O)O)CCN(CC(=O)O)CC4)CC3)cc12 [^68Ga-FAPI-4, metal not drawn, reference compound]",reduced quickly over time,1.09 ± 0.31,1.09 ± 0.08,3.39 ± 1.03,0.05 ± 0.01,0.11 ± 0.02,0.35 ± 0.03,1.86 ± 0.10,0.37 ± 0.02,0.75 ± 0.09,0.68 ± 0.04,0.38 ± 0.04,0.57 ± 0.13,0.07 ± 0.02,0.29 ± 0.04,12.7±2.19
